Where two headings read alike, the source gives them in different places. Marks after values point to notes of the source that are not given here.
Target: T1, F508delCFTR (Homo sapiens, UniProt P13569, DEL508-508)
T1 construct: expressed in transfected cells; host or cells: CFBE41o- human lung derived epithelial cells (CFBE41o-F508delCFTR-HRP), doxycycline-inducible
Experiment: Cell Surface Expression-Horse Radish Peroxidase (CSE-HRP) Assay;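 on EC50 (with co-corrector): co-corrector chromenyl benzoic acid corrector at 2 or 3 µM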;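 on Maximum % activity (without co-corrector): % of on-plate positive control chromenyl benzoic acid corrector at 2 or 3 µM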
Format: cell-based
Details: for Emax: read-out: Maximum % activity (without co-corrector)
How it was run: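 Corrector compounds were given as 8-point 3-fold series from 20 or 30 μM, with or without a 2 μM co-corrector, for 18-24 h at 33 °C. Surface HRP was read by luminol luminescence as % of positive control; variable-Hill-slope sigmoidal fitting gave EC50 from triplicate plates.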

[1] = test compound alone, without co-corrector, read-out: EC50 (without co-corrector)
[2] = with co-corrector, maximum at any tested concentration
[3] = with co-corrector, read-out: EC50 (with co-corrector)
[4] = without co-corrector, maximum at any tested concentration
[5] = test compound with co-corrector, maximum at any tested concentration
[6] = test compound with co-corrector, read-out: EC50 (with co-corrector)
[7] = test compound without co-corrector, maximum at any tested concentration
[8] = test compound without co-corrector, read-out: EC50 (without co-corrector)
[9] = test compound with co-corrector
[10] = test compound without co-corrector

T1 sequence (P13569 with tags, fused parts or gaps DEL508-508): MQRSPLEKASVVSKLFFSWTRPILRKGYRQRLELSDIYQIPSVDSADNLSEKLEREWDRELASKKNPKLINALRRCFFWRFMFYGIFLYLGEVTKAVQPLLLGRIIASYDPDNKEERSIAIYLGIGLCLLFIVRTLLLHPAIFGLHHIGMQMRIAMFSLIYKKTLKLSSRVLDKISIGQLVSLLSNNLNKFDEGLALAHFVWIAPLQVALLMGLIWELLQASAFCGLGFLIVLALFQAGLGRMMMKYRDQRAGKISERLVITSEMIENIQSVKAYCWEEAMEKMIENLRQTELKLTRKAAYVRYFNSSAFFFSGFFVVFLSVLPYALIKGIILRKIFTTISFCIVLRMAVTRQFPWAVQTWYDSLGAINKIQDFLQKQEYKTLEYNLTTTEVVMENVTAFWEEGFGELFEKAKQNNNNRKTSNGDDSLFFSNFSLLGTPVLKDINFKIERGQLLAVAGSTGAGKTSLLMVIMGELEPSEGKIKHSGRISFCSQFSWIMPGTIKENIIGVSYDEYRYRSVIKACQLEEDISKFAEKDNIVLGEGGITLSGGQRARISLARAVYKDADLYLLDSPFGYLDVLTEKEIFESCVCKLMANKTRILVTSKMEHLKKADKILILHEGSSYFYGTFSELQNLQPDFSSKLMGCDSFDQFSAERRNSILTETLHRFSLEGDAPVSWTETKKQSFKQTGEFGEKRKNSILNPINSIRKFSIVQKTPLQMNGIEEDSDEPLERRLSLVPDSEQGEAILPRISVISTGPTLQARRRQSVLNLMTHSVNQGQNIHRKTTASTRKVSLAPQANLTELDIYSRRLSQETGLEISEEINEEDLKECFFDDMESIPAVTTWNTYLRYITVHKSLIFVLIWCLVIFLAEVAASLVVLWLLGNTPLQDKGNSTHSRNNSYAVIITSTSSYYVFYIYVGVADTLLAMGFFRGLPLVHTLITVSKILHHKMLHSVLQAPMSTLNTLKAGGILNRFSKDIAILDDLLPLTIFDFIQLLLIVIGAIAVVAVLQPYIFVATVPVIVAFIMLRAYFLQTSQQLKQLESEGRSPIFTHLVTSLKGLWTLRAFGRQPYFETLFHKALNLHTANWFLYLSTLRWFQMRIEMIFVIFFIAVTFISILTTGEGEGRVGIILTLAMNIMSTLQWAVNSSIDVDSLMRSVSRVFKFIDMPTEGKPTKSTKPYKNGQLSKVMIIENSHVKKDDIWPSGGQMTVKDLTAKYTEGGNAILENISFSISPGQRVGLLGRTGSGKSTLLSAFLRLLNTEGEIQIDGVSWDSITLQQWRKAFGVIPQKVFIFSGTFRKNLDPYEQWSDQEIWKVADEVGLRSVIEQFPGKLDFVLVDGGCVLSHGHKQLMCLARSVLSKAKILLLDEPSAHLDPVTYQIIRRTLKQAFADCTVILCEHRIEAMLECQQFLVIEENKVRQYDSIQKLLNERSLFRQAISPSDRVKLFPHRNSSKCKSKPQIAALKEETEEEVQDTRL

Structure (SMILES) | EC50 [1] | Maximum % activity (with co-corrector) [2] | EC50 [3] | Emax [4] | Maximum % activity (with co-corrector) [5] | EC50 [6] | Emax [7] | EC50 [8] | Emax | EC50 (with co-corrector) [9] | EC50 (without co-corrector) [10]
COc1cc(C)ccc1C1(C(=O)NS(=O)(=O)c2cccc3ncccc23)CC1 [II-63] | < 3 µM | +++ (≥350) | < 3 µM | > 150% |  |  |  |  |  |  | 
COc1ccc(C2CCC2)cc1C1(C(=O)NS(=O)(=O)c2cccc3c2ccn3C)CC1 [Example I-58, 1-(5-cyclobutyl-2-methoxyphenyl)-N-(1-methyl-1H-indole-4-sulfonyl)cyclopropane-1-carboxamide] | 3 to 10 µM | +++ (≥350) | < 3 µM | > 150% |  |  |  |  |  |  | 
CN(C)c1cccc2c(S(=O)(=O)NC(=O)C3(c4cccc(Cl)c4)CC3)cccc12 [Example III-58, 1-(3-chlorophenyl)-N-[5-(dimethylamino)naphthalene-1-sulfonyl]cyclopropane-1-carboxamide] | > 10 µM | ++ (≥150 and <350) | 3 to 10 µM | < 50% |  |  |  |  |  |  | 
COc1ccc(C2(C(=O)NS(=O)(=O)c3ccccc3)CC2)cc1 [Example III-5, N-(benzenesulfonyl)-1-(4-methoxyphenyl)cyclopropane-1-carboxamide] | > 10 µM | + (<150) | > 10 µM | < 50% |  |  |  |  |  |  | 
COc1cccc(C(C)C)c1C1(C(=O)NS(=O)(=O)c2cccc3ncccc23)CC1 [Example I-50, 1-[2-methoxy-6-(propan-2-yl)phenyl]-N-(quinoline-5-sulfonyl)cyclopropane-1-carboxamide] | < 3 µM | +++ (≥350) | < 3 µM | > 150% |  |  |  |  |  |  | 
COc1ccc(C)c(C)c1C1(C(=O)NS(=O)(=O)c2cccc3nc(C)ccc23)CC1 [II-51] | < 3 µM | +++ (≥350) | < 3 µM | > 150% |  |  |  |  |  |  | 
CC(C)Oc1cnc(OC(C)C)c(C2(C(=O)NS(=O)(=O)c3cccc4[nH]ccc34)CC2)c1 [Example GI-66, 1-{2,5-bis[(propan-2-yl)oxy]pyridin-3-yl}-N-(1H-indole-4-sulfonyl)cyclopropane-1-carboxamide] |  |  |  |  | +++ (≥350) | < 3 µM | > 150% | < 3 µM |  |  | 
COc1ccc(C2CCC2)c(C2(C(=O)NS(=O)(=O)c3cccc4ncccc34)CC2)c1 [II-46] | < 3 µM | +++ (≥350) | < 3 µM | > 150% |  |  |  |  |  |  | 
O=C(NS(=O)(=O)c1cccc2ncccc12)C1(c2cc(C3CCC3)cnc2OCC2CC2)CC1 [Example GI-100, 1-[5-cyclobutyl-2-(cyclopropylmethoxy)pyridin-3-yl]-N-(quinoline-5-sulfonyl)cyclopropane-1-carboxamide] |  |  |  |  | +++ (≥350) | < 3 µM | > 150% | < 3 µM |  |  | 
COc1ccc(Cl)c(OC)c1C1(C(=O)NS(=O)(=O)c2cccc3ncccc23)CC1 [II-54] | < 3 µM | +++ (≥350) | < 3 µM | > 150% |  |  |  |  |  |  | 
COC(=O)c1ccc(OC)c(C2(C(=O)NS(=O)(=O)c3cccc4ccccc34)CC2)c1 [II-32] | 3 to 10 µM | +++ (≥350) | < 3 µM |  |  |  |  |  | > 150% |  | 
Cc1ccc(OC2COC2)c(C2(C(=O)NS(=O)(=O)c3cccc4nc(C)ccc34)CC2)c1 [Example I-106, 1-{5-methyl-2-[(oxetan-3-yl)oxy]phenyl}-N-(2-methylquinoline-5-sulfonyl)cyclopropane-1-carboxamide] | 3 to 10 µM | +++ (≥350) | < 3 µM | > 150% |  |  |  |  |  |  | 
CCOc1ccc(C)cc1C1(C(=O)NS(=O)(=O)c2cccc3ncccc23)CC1 [Example I-82, 1-(2-ethoxy-5-methylphenyl)-N-(quinoline-5-sulfonyl)cyclopropane-1-carboxamide] | < 3 µM | +++ (≥350) | < 3 µM | > 150% |  |  |  |  |  |  | 
O=C(NS(=O)(=O)c1cccc2ccccc12)C1(c2ccc(C(F)(F)F)nc2Cl)CC1 [GIII-21] |  |  |  |  | ++ (≥150 and <350) |  | 50 to 150% |  |  | ++^a | ++^a
COc1ccc(C2CC2)cc1C1(C(=O)NS(=O)(=O)c2cccc3nc(C)ccc23)CC1 [Example I-68, 1-(5-cyclopropyl-2-methoxyphenyl)-N-(2-methylquinoline-5-sulfonyl)cyclopropane-1-carboxamide] | < 3 µM |  | < 3 µM |  |  |  |  |  |  |  | 
COc1cc(F)c(C(C)C)cc1C1(C(=O)NS(=O)(=O)c2cccc3ncccc23)CC1 [Example I-36, 1-[4-fluoro-2-methoxy-5-(propan-2-yl)phenyl]-N-(quinoline-5-sulfonyl)cyclopropane-1-carboxamide] | < 3 µM | +++ (≥350) | < 3 µM | > 150% |  |  |  |  |  |  | 
O=C(NS(=O)(=O)Cc1ccccc1)C1(c2ccc(Cl)cc2)CC1 [Example III-114, 1-(4-chlorophenyl)-N-(phenylmethanesulfonyl)cyclopropane-1-carboxamide] | > 10 µM | + (<150) | 3 to 10 µM | < 50% |  |  |  |  |  |  | 
COc1ncc(C2CCC2)c(C)c1C1(C(=O)NS(=O)(=O)c2cccc3nc(C)ccc23)CC1 [II-33] | 3 to 10 µM | +++ (≥350) | < 3 µM | > 150% |  |  |  |  |  |  | 
COc1cccc(C2(C(=O)NS(=O)(=O)c3cccc4ccccc34)CC2)c1 [II-1] | 3 to 10 µM | +++ (≥350) | 3 to 10 µM | > 150% |  |  |  |  |  |  | 
Cc1ccc(OC2COC2)c(C2(C(=O)NS(=O)(=O)c3cccc4ncccc34)CC2)c1 [Example I-93, 1-{5-methyl-2-[(oxetan-3-yl)oxy]phenyl}-N-(quinoline-5-sulfonyl)cyclopropane-1-carboxamide] | 3 to 10 µM | +++ (≥350) | < 3 µM | > 150% |  |  |  |  |  |  | 
COCCOc1ncc(C2CCC2)cc1C1(C(=O)NS(=O)(=O)c2cccc3nc(C)ccc23)CC1 [Example GI-94, 1-[5-cyclobutyl-2-(2-methoxyethoxy)pyridin-3-yl]-N-(2-methylquinoline-5-sulfonyl)cyclopropane-1-carboxamide] |  |  |  |  | +++ (≥350) | < 3 µM | > 150% | < 3 µM |  |  | 
COc1cc(C2(C(=O)NS(=O)(=O)c3cccc4[nH]ccc34)CC2)c(OCC(C)C)cn1 [Example GI-21, N-(1H-indole-4-sulfonyl)-1-[2-methoxy-5-(2-methylpropoxy)pyridin-4-yl]cyclopropane-1-carboxamide] | < 3 µM | +++ (≥350) | < 3 µM | > 150% |  |  |  |  |  |  | 
O=C(NS(=O)(=O)c1ccccc1)C1(c2ccccc2)CC1 [Example III-6, N-(benzenesulfonyl)-1-phenylcyclopropane-1-carboxamide] | > 10 µM | ++ (≥150 and <350) | 3 to 10 µM | < 50% |  |  |  |  |  |  | 
COc1cnc(OCC2CC2)c(C2(C(=O)NS(=O)(=O)c3cccc4[nH]ccc34)CC2)c1 [Example GI-88, 1-[2-(cyclopropylmethoxy)-5-methoxypyridin-3-yl]-N-(1H-indole-4-sulfonyl)cyclopropane-1-carboxamide] |  |  |  |  | +++ (≥350) | < 3 µM | > 150% | < 3 µM |  |  | 
CCc1cnc(OCCOC)c(C2(C(=O)NS(=O)(=O)c3cccc4ncccc34)CC2)c1 [Example GI-112, 1-[5-ethyl-2-(2-methoxyethoxy)pyridin-3-yl]-N-(quinoline-5-sulfonyl)cyclopropane-1-carboxamide] |  |  |  |  | +++ (≥350) | < 3 µM | > 150% | 3 to 10 µM |  |  | 
COc1ccc(C2CCC2)cc1C1(C(=O)NS(=O)(=O)c2cccc3c2CCN3C)CC1 [II-40] | 3 to 10 µM | +++ (≥350) | 3 to 10 µM | > 150% |  |  |  |  |  |  | 
O=C(NS(=O)(=O)c1ccccc1)C1(c2ccc(Cl)cc2)CC1 [Example III-33, N-(benzenesulfonyl)-1-(4-chlorophenyl)cyclopropane-1-carboxamide] | 3 to 10 µM | ++ (≥150 and <350) | 3 to 10 µM | < 50% |  |  |  |  |  |  | 
CCc1ccncc1C1(C(=O)NS(=O)(=O)c2cccc3c2CCCN3)CC1 [GII-21, 1-(4-ethylpyridin-3-yl)-N-(1,2,3,4-tetrahydroquinoline-5-sulfonyl)cyclopropane-1-carboxamide] |  |  |  |  | ++ (≥150 and <350) | 3 to 10 µM | < 50% | > 10 µM |  |  | 
O=C(NS(=O)(=O)c1cccc2ncccc12)C1(c2cccnc2N2CCCC2)CC1 [GII-33, 1-[2-(pyrrolidin-1-yl)pyridin-3-yl]-N-(quinoline-5-sulfonyl)cyclopropane-1-carboxamide] |  |  |  |  | ++ (≥150 and <350) |  | 50 to 150% |  |  | ++^a | ++^a
CCc1cnc(N2CCCC2)c(C2(C(=O)NS(=O)(=O)c3cccc4nc(C)ccc34)CC2)c1 [GII-31, 1-[5-ethyl-2-(pyrrolidin-1-yl)pyridin-3-yl]-N-(2-methylquinoline-5-sulfonyl)cyclopropane-1-carboxamide] |  |  |  |  | +++ (≥350) | 3 to 10 µM | > 150% | 3 to 10 µM |  |  | 

From patent US10829473B2, “Modulators of the cystic fibrosis transmembrane conductance regulator protein and methods of use” (AbbVie Overseas S.Á.R.L., priority 2017, dated 2020)
